Results reported in US20230390276A1, “TREATMENT OF AUTOIMMUNE DISEASES WITH A DIHYDROOROTATE HEHYDROGENASE (DHODH) INHIBITOR” (Aslan Pharmaceuticals Pte. Ltd., priority 2020, published 2023).

Columns and labels:
[1] = test system: multiple sclerosis experimental autoimmune encephalomyelitis (EAE) model; test: EAE model of multiple sclerosis, clinical score (Example 1); assay type: in vivo; details: oral 1, 3, 10 or 15 mg/kg per day from Day 8 after disease induction
Source text: Experimental autoimmune encephalomyelitis (EAE) is a well-studied animal model of demyelinating diseases, such as human multiple sclerosis (MS). EAE is induced by injecting susceptible animals with purified myelin components, central nervous system (CNS) extract, or synthesized specific peptides emulsified in an adjuvant. The peptides are for example derived from myelin basic protein (MBP), myelin oligodendrocyte glycoprotein (MOG) or proteolipid protein (PLP). To investigate the effect of ASLAN003 on multiple sclerosis, ASLAN003 was administered orally to the EAE model at doses of 1 mg/kg, 3 mg/kg, 10 mg/kg or 15 mg/kg per day, starting from Day 8 after disease induction. A vehicle control was included.

EAE Lewis rat model [2] = test: EAE Lewis rat model, clinical score AUC (Example 2); assay type: in vivo, Male Lewis rats
Method: For the induction of EAE, guinea pig myelin basic protein (MBP) (Sigma, M2295) suspended in 0.9% saline solution at a concentration of 2 mg/ml was used. The solution was emulsified with an equal volume of Freund's complete adjuvant (Sigma, F5881) containing 4 mg/ml of heat-inactivated Mycobacterium tuberculosis H37Ra (Difeo Laboratories, Ref. 231141). Male Lewis rats were immunized with 0.1 ml of emulsion by subcutaneous injection into the right and left hind footpads with the emulsion containing MBP at 100 μg/rat.
Individual animals were examined daily for clinical signs of neurological deficits scored on a 0 to 5 scale, as follows:
Clinical signs of the disease were observed on day 8-9 after induction.
As disease progressed, animals with a score of 4 were sacrificed if disability indicated little chance of recovery, in accordance with animal welfare standards. Mortality due to sacrifice or spontaneous EAE-related death was recorded as a 5 on the given day. This death score continued to be included in the clinical assessment, but no body weight measurements could be carried forward.
LAS 186323 (ASLAN003), positive control T and positive control F were freshly prepared every day and suspended in 0.5% Methylcellulose and 0.1% Tween 80 in water, at the specified doses and administered by oral gavage in a volume of 10 ml/kg.
Evaluation of disability was performed on a daily basis and a clinical score given to each animal, as described. The area under the curve (AUC) of the clinical score was generated for each animal from the data recorded along the experiment. The percentage of inhibition of the AUC was calculated for every animal versus the mean of the AUC of the vehicle group. The mean percentage of inhibition per treatment and dose was calculated.

EAE Lewis rat model [3] = test: Histology of the CNS in EAE rats; assay type: in vivo, Male Lewis rats; details: highest doses tested; compared to vehicle-treated animals
Method: At the end of the experiment, animals were killed by exsanguination and necropsies were performed in a blind manner. The spinal cords (CNS; spinal cord, medulla oblonga, cerebellum) of EAE animals were obtained, fixed in 4% formalin in PBS, and embedded in paraffin. Six μm-thickness sections were prepared and then stained with hematoxylin and eosin. The histological score was evaluated as follows: • 0: no lesions; • 1: solitary lesions with cell infiltrates of low cellular density in the entire section; • 2: a few lesions with moderate cell infiltration in each of a few fields; • 3: many lesions in almost all fields with massive cell infiltration and accompanying edema (Kataoka, 2005).

[4] = Haematological cell count in EAE rats; assay type: in vivo, Male Lewis rats; details: for number of neutrophils: 24 hours after last administration, no statistically significant difference versus vehicle
Method: At the end of the assay, 24 h after last administration, blood samples from the retro-orbital plexus were obtained from all animals under light anaesthesia. Samples were used to determine complete blood cell count (XT-2000i/XT-1800i, Sysmex Corporation). Absolute values were reported for all cell types.

[5] = test system: rheumatoid arthritis (RA) Adjuvant-Induced Arthritis (AIA) model; test: Adjuvant-induced arthritis (AIA) model, paw inflammation AUC; assay type: in vivo, Male Wistar rats; details: for % Inhibition of the AUC (mean ± SEM): vs mean of vehicle
[6] = WBC and platelet counts in AIA model; assay type: in vivo, Male Wistar rats; details: arthritic rats, 24 hrs after last administration
Method: Rats were administered the CFA suspension every day in the morning for 10 consecutive days. Body weight was measured every day and paw volumes every other day. On day 11 post-treatment (24 hrs after last administration), the rats were anesthetised, blood samples were collected from their retroorbital plexus to determine cell counts, and then sacrificed. Hind paws were excised to perform X-ray analysis and a score of radiological damage was performed by a scientist unaware in a blind manner.

[7] = test system: rheumatoid arthritis (RA) Adjuvant-Induced Arthritis (AIA) model; test: X-ray (radiological) score of paws in AIA model; assay type: in vivo, Male Wistar rats; details: 3 mg/kg; 2 to 3 independent experiments
Method: Rats were administered the CFA suspension every day in the morning for 10 consecutive days. Body weight was measured every day and paw volumes every other day. On day 11 post-treatment (24 hrs after last administration), the rats were anesthetised, blood samples were collected from their retroorbital plexus to determine cell counts, and then sacrificed. Hind paws were excised to perform X-ray analysis and a score of radiological damage was performed by a scientist unaware in a blind manner. The radiological score is a composite of 5 different parameters evaluated from the X-ray images of every individual paw. The 5 parameters are: bone demineralisation, periostitis, narrowing of the joint space, cystic degeneration, and inflammation of the soft tissues. For each parameter, a value of 0-4 was assigned, which is proportional to the severity observed. The sum of the scores of the 5 parameters provides the radiological score for each animal. The effect of a treatment on the inhibition of the radiological score was measured by calculating the % inhibition of the radiological score of every animal belonging to a treatment group vs the mean of the vehicle treated group. In the case where several experiments were conducted, the values provided are the mean of the individual experiments and the SEM.

DSS induced IBD model = test: Dextran sulfate sodium (DSS) induced inflammatory bowel disease (IBD) mouse model; assay type: in vivo, Male C57BL/6 mice
Method: Male C57BL/6 mice aged 6-7 weeks were procured from Shanghai Lingchang Bio Tech Co. Ltd, China. Animals were randomized into groups based on the body weight: • Group 01: Purified water, ad libitum, Day 1-8; Vehicle, 5 mL/kg, P0, QD, Day 0-9, n=6 • Group 02: 3% DSS in water, ad libitum, Day 1-8; Vehicle, 5 mL/kg, P0, QD, Day 0-9, n=8 • Group 03: 3% DSS in water, ad libitum, Day 1-8; positive control V, 20 mg/kg, P0, QD, Day 0-9, n=8 • Group 04: 3% DSS in water, ad libitum, Day 1-8; ASLAN003, low dose, P0, QD, Day 0-9, n=8a • Group 05: 3% DSS in water, ad libitum, Day 1-8; ASLAN003, high dose, P0, QD, Day 0-9, n=8 • Abbreviations: QD=Once daily; PO=Oral gavage. • Study duration: 3 weeks of acclimation phase, and 10 days of treatment phase starting from Day 0 (Day 0-10). • Colitis model induction: To induce acute experimental colitis, mice in Groups 02-05 were provided ad libitum access to 3% DSS in purified water for 7 days (Day 1-7), followed by purified water for 2 days (Day 9-10). The drinking water containing DSS was changed once in two days. Mice in Group 01 was kept on purified water as a control, during Day 1-7. • In-life parameters measured: • Water and food consumption was monitored once daily during Day 0-10. • Body weight was measured once daily during Day 0-10, with twice daily clinical monitoring. • Stool observation as conducted once daily during Day 0-10. A disease activity index (DAI) was determined to quantify induction of colitis. • Intestinal permeability was assessed on Days 0 and 9. • Faeces was collected for lipocalin-2 detection on Days 0, 4, 8 and 10. • Study Termination: The mice were sacrificed on Day 10, and the following was performed on the sacrificed animals: • The entire colon (from caecum to anus) was collected and its length from ileocecal valve to anus was measured. • One photo of the entire colon for each mouse was taken. • The colon was opened along the mesenteric border, rinsed with saline, blotted dry and its weight was measured. • The colon was processed as ‘spiral Swiss Rolls’, fixed in 10% neutral-buffered formalin for 24-48 hours, and embedded in paraffin (one block per mouse) for hematoxylin-eosin (H&E) staining and histopathological evaluation. • The spleen was dissected, its tissue weight measured and recorded, and then discarded.

COc1cccc(-c2cc(F)c(Nc3ncccc3C(=O)O)c(F)c2)c1 [ASLAN003, 2-(3,5-difluoro-3′-methoxybiphenyl-4-ylamino) nicotinic acid]
clinical score compared to the vehicle control [1]: significantly reduced clinical score | % AUC inhibition Mean (SEM) of clinical score (EAE Lewis rat model [2]; 1 mg/kg oral daily): 41.1 (13.34) % | % AUC inhibition Mean (SEM) of clinical score (EAE Lewis rat model [2]; 3 mg/kg oral daily): 44.4 (10.79) % | % AUC inhibition Mean (SEM) of clinical score (EAE Lewis rat model [2]; 10 mg/kg oral daily): 65.1 (9.02) % | % AUC inhibition Mean (SEM) of clinical score (EAE Lewis rat model [2]; 15 mg/kg oral daily): 84.4 (4.94) % | ED50 (clinical score AUC inhibition) (EAE Lewis rat model [2]; calculated by linear regression): 2.7 mg/kg/day | CNS histological score (microscopic CNS lesions) (EAE Lewis rat model [3]): profound improvement in the microscopic CNS lesions | number of neutrophils ([4]; 10 mg/kg): not at 10 mg/kg | number of neutrophils ([4]; 3 and 15 mg/kg): reduction in the number of neutrophils | blood cell count ([4]; once a day oral, 1-15 mg/kg): did not have a significant effect | AUC of right paw inflammation (mean ± SEM) ([5]; 1 mg/kg oral daily, 2 to 5 independent experiments): 9.11 ± 3.14 | % Inhibition of the AUC (mean ± SEM) ([5]; 1 mg/kg oral daily): 32.76 ± 22.8% | % Inhibition of the AUC (mean ± SEM) ([5]; 3 mg/kg oral daily): 53.09 ± 2.4% | % Inhibition of the AUC (mean ± SEM) ([5]; 10 mg/kg oral daily): 64.49 ± 4.6% | ED50 ([5]; Rattus norvegicus, from 2 to 5 independent experiments, read-out: ED50 (mean % reduction in paw volume)): 4.6 mg/kg | Platelets ([6]; 1 mg/kg): 1418 ± 180 ×10^3/μl | White blood cells ([6]; 1 mg/kg): 20.6 ± 0 ×10^3/μl | Platelets ([6]; 3 mg/kg): 1180 ± 45.9 ×10^3/μl | White blood cells ([6]; 3 mg/kg): 16.2 ± 0.86 ×10^3/μl | X-ray score (mean ± SEM) [7]: 2.16 ± 0.25 | stool consistency (DSS induced IBD model; 75 mg/kg PO QD (group 5), Days 2 to 9): best overall stool consistency | spleen weight (DSS induced IBD model; 75 mg/kg PO QD (group 5), end of study): most similar to the control group 1 | Disease Activity Index (DAI) (DSS induced IBD model; 75 mg/kg PO QD (group 5), over the 10 days): lower overall increase in DAI | bloody stools (DSS induced IBD model; 75 mg/kg PO QD (group 5), over the course of the study): lowest incidence of bloody stools | colon weight/length (DSS induced IBD model; 25 and 75 mg/kg PO QD (groups 4 and 5), end of study, vs Vehicle group 2): fairly similar | lipocalin in faeces (intestinal inflammation) (DSS induced IBD model; 25 and 75 mg/kg PO QD (groups 4 and 5), vs vehicle treated group 2): less intestinal inflammation | loss in body weight (DSS induced IBD model; 25 and 75 mg/kg PO QD Day 0-9 (groups 4 and 5), vs DSS induced vehicle group 2): similar
